Results published in patent US20250195478A1, “DUAL INHIBITORS OF VISTA AND PD-1 PATHWAYS” (Aurigene Oncology Limited, priority 2016, published 2025).

Columns and labels:
[1] = target: T1, Recombinant mouse PD-L1 (Mus musculus, UniProt Q9EP73); assay: Rescue of mouse splenocyte proliferation in the presence of recombinant PD-L1 (CFSE proliferation assay); format: cell-based; conditions: 100 nM compound; anti-CD3/CD28 stimulated mouse splenocytes + PD-L1; 72 h; stimulated splenocytes = 100%; read-out: PDL1 (rescue of proliferation @ 100 nM)
T1 construct: Fc (Fc chimera); purchased R&D Systems 1019-B7-100
T1 sequence (Q9EP73 19-238 limits assumed): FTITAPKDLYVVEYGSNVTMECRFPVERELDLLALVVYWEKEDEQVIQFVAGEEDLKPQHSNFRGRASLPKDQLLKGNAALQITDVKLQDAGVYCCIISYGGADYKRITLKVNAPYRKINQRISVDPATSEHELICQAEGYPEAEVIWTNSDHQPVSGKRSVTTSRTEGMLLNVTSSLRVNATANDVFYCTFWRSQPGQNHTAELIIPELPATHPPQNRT
Description: Example 1: Rescue of Mouse Splenocyte Proliferation in the Presence of Recombinant PD-L1/PD-L2
Recombinant mouse PD-L1 (rm-PDL-1, cat no: 1019-B7-100; R&D Systems) were used as the source of PD-L1.
Mouse splenocytes harvested from 6-8 weeks old C57 BL6 mice; RPMI 1640 (GIBCO, Cat #11875); DMEM with high glucose (GIBCO, Cat #D6429); Fetal Bovine Serum [Hyclone, Cat #SH30071.03]; Penicillin (10000unit/mL)-Streptomycin (10,000 μg/mL) Liquid (GIBCO, Cat #15140-122); MEM Sodium Pyruvate solution 100 mM (100×), Liquid (GIBCO, Cat #11360); Nonessential amino acid (GIBCO, Cat #11140); L-Glutamine (GIBCO, Cat #25030); Anti-CD3 antibody (eBiosciences-16-0032); Anti-CD28 antibody (eBiosciences-16-0281); ACK lysis buffer (1mL) (GIBCO, Cat #-A10492); Histopaque (density-1.083 gm/mL) (SIGMA 10831); Trypan blue solution (SIGMA-T8154); 2 mL Norm Ject Luer Lock syringe-(Sigma 2014-12); 40 μm nylon cell strainer (BD FALCON 35230); Hemacytometer (Bright line-SIGMA Z359629); FACS Buffer (PBS/0.1% BSA): Phosphate Buffered Saline (PBS) pH 7.2 (HiMedia TS1006) with 0.1% Bovine Serum Albumin (BSA) (SIGMA A7050) and sodium azide (SIGMA 08591); 5 mM stock solution of CFSE: CFSE stock solution was prepared by diluting lyophilized CFSE with 180 μL of Dimethyl sulfoxide (DMSO C2H6SO, SIGMA-D-5879) and aliquoted in to tubes for further use. Working concentrations were titrated from 10 μM to 1 μM. (eBioscience-650850-85); 0.05% Trypsin and 0.02% EDTA (SIGMA 59417C); 96-well format ELISA plates (Corning CLS3390); BD FACS caliber (E6016);
Recombinant mouse B7-H1/PDL1 Fc Chimera, (rm-PD-L1 cat no: 1019-B7-100).
Splenocytes harvested in a 50 mL falcon tube by mashing mouse spleen in a 40 μm cell strainer were further treated with 1 mL ACK lysis buffer for 5 min at room temperature.
After washing with 9 mL of RPMI complete media, cells were re-suspended in 3 mL of 1×PBS in a 15 mL tube. 3 mL of Histopaque was added carefully to the bottom of the tube without disturbing overlaying splenocyte suspension. After centrifuging at 800×g for 20 min at room temperature, the opaque layer of splenocytes was collected carefully without disturbing/mixing the layers. Splenocytes were washed twice with cold 1×PBS followed by total cell counting using Trypan Blue exclusion method and used further for cell based assays.
Splenocytes were cultured in RPMI complete media (RPMI +10% fetal bovine serum+1 mM sodium pyruvate+10,000units/mL penicillin and 10,000 μg/mL streptomycin) and maintained in a CO2 incubator with 5% CO2 at 37° C.
CFSE is a dye that passively diffuses into cells and binds to intracellular proteins. 1×10^6 cells/mL of harvested splenocytes were treated with 5 μM of CFSE in pre-warmed 1×PBS/0.1% BSA solution for 10 min at 37° C. Excess CFSE was quenched using 5 volumes of ice-cold culture media to the cells and incubated on ice for 5 min. CFSE labelled splenocytes were further given three washes with ice cold complete RPMI media. CFSE labelled 1×10^5 splenocytes added to wells containing either MDA-MB231 cells (1×10^5 cells cultured in high glucose DMEM medium) or recombinant […] PDL-1 (100 ng/mL) and test compounds. Splenocytes were stimulated with anti-mouse CD3 and anti-mouse CD28 antibody (lug/mL each), and the culture was further incubated for 72 h at 37° C. with 5% CO2. Cells were harvested and washed thrice with ice cold FACS buffer and % proliferation was analysed by flow cytometry with 488 nm excitation and 521 nm emission filters.
Percent splenocyte proliferation was analysed using cell quest FACS program and percent rescue of splenocyte proliferation by compound was estimated after deduction of % background proliferation value and normalising to % stimulated splenocyte proliferation (positive control) as 100%.
Stimulated splenocytes: Splenocytes+anti-CD3/CD28 stimulation
Background proliferation: Splenocytes+anti-CD3/CD28+PD-L1
Compound proliferation: Splenocytes+anti-CD3/CD28+PD-L1+Compound […]

[2] = target: T2, recombinant human VISTA (Homo sapiens, UniProt Q9H7M9); assay: Human PBMC IFN-γ release assay in the presence of recombinant human VISTA; format: cell-based; conditions: 100 nM compound, plate-coated VISTA + anti-CD3, anti-CD28, 72 h, ELISA
T2 construct: Fc (Fc chimera); purchased R&D Systems 7126-B7
T2 sequence (Q9H7M9 with tags, fused parts or gaps limits assumed): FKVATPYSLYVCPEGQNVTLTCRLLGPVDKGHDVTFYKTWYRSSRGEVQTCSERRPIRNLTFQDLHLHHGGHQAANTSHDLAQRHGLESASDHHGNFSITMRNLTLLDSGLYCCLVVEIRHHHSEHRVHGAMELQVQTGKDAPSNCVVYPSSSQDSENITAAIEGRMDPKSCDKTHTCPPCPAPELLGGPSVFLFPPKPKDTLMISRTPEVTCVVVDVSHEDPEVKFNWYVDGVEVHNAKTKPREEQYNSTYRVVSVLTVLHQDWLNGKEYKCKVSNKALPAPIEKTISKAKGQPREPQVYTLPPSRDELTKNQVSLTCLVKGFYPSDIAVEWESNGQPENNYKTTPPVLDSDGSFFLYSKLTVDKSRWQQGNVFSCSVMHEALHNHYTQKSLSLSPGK
Description: Example 2: Rescue of Mouse Splenocyte Proliferation in the Presence of Recombinant VISTA
Vehicle: Milli Q water; RPMI 1640 (GIBCO, Cat #11875); Fetal Bovine Serum [Hyclone, Cat #SH30071.03]; Penicilin (10000 unit/ml)-Streptomycin (10,000 μg/ml) liquid (GIBCO, Cat #15140-122); MEM Sodium Pyruvate solution 100 mM (100×), Liquid (GIBCO, Cat #11360); Nonessential amino acid (GIBCO, Cat #11140); L-Glutamine (GIBCO, Cat #25030); Recombinant human VISTA (rhGi24 VISTA/B7-H5 Fc chimera (R&D systems, cat no: 7126-B7); Anti-h/m Gi24/VISTA/B7-H5 purified mouse monoclonal IgG2B (R&D systems, cat no: MAB7126); Mouse IgG2B isotype control (R&D Systems cat no: MAB 004); Anti human-CD3 antibody (eBiosciences-16-0039); Anti human-CD28 antibody (eBiosciences-16-0289); Histopaque (density-1.077 gm/ml) (SIGMA 1077); Trypan Blue solution (SIGMA-T8154); Hemacytometer (Bright line-SIGMA Z359629); FACS Buffer containing Phosphate Buffered Saline (PBS) pH 7.2; (HiMedia TS1006) with 0.1% Bovine Serum Albumin (BSA) (SIGMA A7050) and sodium azide (SIGMA 08591); 96-well format ELISA plates (Corning 3599); 96-well format ELISA plates (Corning 3361); BD FACS caliber (E6016); Centrifuge (Eppendorf 5810 R); Human IFN-γ Duo set ELISA kit (R&D Systems; cat no: DY-285).
96-well cell culture plates were pre-coated with recombinant human VISTA (2.5 μg/ml) and anti-human CD3 (2.5 μg/ml), and stored at 4° C. overnight. Anti-human VISTA and isotype control antibodies were either coated along with the VISTA or incubated for 30 min next day before addition of cells. On the next day, plates were washed with 1×PBS and then incubated with test compounds for 30 min. Isolated PBMC (0.1×10^6 cells/well) and anti-human CD28 antibodies (lug/ml) were added to the wells. The culture was further incubated for 72 h at 37° C. with 5% CO2. After 72 h of incubation the cell culture supernatants were collected after brief centrifugation at 200 g×5 min at 4° C. and processed for human IFN-γ measurement by ELISA following manufacturer's protocol (R&D Systems; DY-285).
In brief, 96-well ELISA plates were coated with 100 μl/well of capture antibody in coating buffer and incubated overnight at 4° C. Plates were washed five times with wash buffer and further blocked with 200 μl of 1× assay diluents for 1 hr at RT. Following wash step, 100 μl of cell culture supernatants were added to wells and further incubated for 2 hr at RT. Appropriate standards were also included. After wash step, plate was incubated for one hour with 100 μl/well of detection antibody. The wash step was repeated and the plate was incubated for 30 min with 100 μl/well of Avidin-HRP. The plate was washed four times with wash buffer and subsequently incubated for 15 min with 100 μl/well of substrate solution. 50 μl of stop solution was added to each well and the plate was read at 450 nm using Gen5 ver 2.05. Delta OD values were used for calculating the concentrations. The absorbance values were plotted against the standards and the concentration of IFN-γ was determined using GraphPad Prism software. Each experimental condition was carried out in triplicates.
The percent rescue of IFN-γ release of the selected compounds of present invention are set forth below wherein “A” refers to compounds having more than 70% rescue of IFN-γ release, “B” refers to compounds having rescue of IFN-γ release ranges from 50% to 69.9% and “C” refers to compounds having less than 50% rescue of IFN-γ release.

activation at 0.1 µM [1]	Compound	VISTA (rescue of IFN γ release @ 100 nM) [2]
72%	CC(O)[C@@H](NC(=O)N[C@@H](CC(N)=O)c1nc([C@H](N)CO)no1)C(=O)O (stereo partly shown) [Compound 23]	A (more than 70% rescue of IFN-γ release)
60%	CC(O)[C@H](NC(=O)N[C@@H](Cc1cc2ccccc2[nH]1)c1nc([C@@H](N)CO)no1)C(=O)O (stereo partly shown) [Compound 8]	B (rescue of IFN-γ release ranges from 50% to 69.9%)

Further lines, the compound ahead of its results:

Compound	activation at 0.1 µM [1]	VISTA (rescue of IFN γ release @ 100 nM) [2]
N[C@@H](CO)c1noc([C@H](CC(=O)O)NC(=O)N[C@@H](CO)C(=O)O)n1 [Compound 3]	91%	C (less than 50% rescue of IFN-γ release)
CC(O)[C@H](NC(=O)N[C@@H](CC(N)=O)c1nc([C@@H](N)C(C)O)no1)C(=O)O (stereo partly shown) [Compound 2]	75%	A (more than 70% rescue of IFN-γ release)
CC(O)[C@H](NC(=O)N[C@@H](CC(N)=O)c1nc(C2(N)CCCCC2)no1)C(=O)O (stereo partly shown) [Compound 19]	86%	B (rescue of IFN-γ release ranges from 50% to 69.9%)
